Source: patent US10989719B2, “Methods for treating spinocerebellar ataxia type I using RPA1” (National University Corporation Tokyo Medical and Dental …, priority 2013, dated 2021)
Entries after “also recorded” stand apart in the source; their conditions may differ.

System: OK6>SCA1 flies
Test: Chemical therapy on hSCA1 Drosophila: lifespan on medium supplemented with CHK1 inhibitor
Assay type: in vivo
Conditions: adult flies
Method: FIG. 29 is a graph showing the results of a lifespan analysis of OK6>SCA1 flies fed on media supplemented with a CHK1 inhibitor (CHIR-124). The statistical analysis of the average values of the lifespan was performed by log-rank test.
A CHK1-specific inhibitor, CHIR-124 (manufactured by AXON MEDCHEM), was dissolved at 5 mg/mL in 1N hydrogen chloride and diluted to multiple concentrations with 0.05 N solution. Note that the medium used here was a 1:1 mixture of Instant Drosophila medium D7670 (manufactured by Sigma Aldrich) and Formula 4-24 Instant Drosophila medium (manufactured by Calolina). As a control, a medium to which an equal amount of 0.05 N hydrogen chloride solution was added was also prepared.
In this respect, whether or not the inhibition of a signal mediated by CHK1 mitigates the lifespan shortening in the SCA1 fly model was examined. Specifically, a CHK1-specific inhibitor (CHIR-124) was used. This inhibitor was added to feed (corn-meal medium) at multiple concentrations, and adult flies were fed on the feed. As a result, the lifespan of OK6>SCA1 was improved at 0.00016 mg/mL and 0.02 mg/mL (see FIG. 29). In addition, the improvement effect was more remarkable in an example where the inhibitor was given at a higher concentration. The lifespan of the flies treated with CHIR-124 at 0.02 mg/mL was elongated by 35% (see FIG. 29).

With O=c1[nH]c2ccc(Cl)cc2c(N[C@@H]2CN3CCC2CC3)c1-c1nc2ccccc2[nH]1 [CHIR-124, 4-[((3S)-1-azabicyclo[2.2.2]oct-3-yl)amino]-3-(1H-benzimidazol-2-yl)-6-chloroquinolin-2(1H)-one] the “lifespan of OK6>SCA1” value (0.00016 mg/mL in feed) was “improved”, the lifespan elongation (0.02 mg/mL in feed) was 35% and the “lifespan of OK6>SCA1” value (0.02 mg/mL in feed) was “ameliorated the lifespan-shortening; also recorded: improved”.
